The target of test [1] is T1, human dopamine D2L receptors (long isoform) (Homo sapiens, UniProt P14416).
T1 construct: expressed in transfected cells; membranes)
Briefly: Dopamine D2L receptor binding, displacement of [125I]-iodospiperone. To be noted: ratio Ki(D2L)/Ki(D3); HEK-293 membranes with human D2L and D3 receptors. The procedure:
(§1) The substance to be tested was dissolved either in methanol/Chremophor® (BASF-AG) or in dimethyl sulfoxide and then diluted with water to the desired concentration.
II. Dopamine D2L Receptor:
(§2) Triplicate mixtures were carried out.
The incubation buffer comprised 50 mM Tris, 120 mM NaCl, 5 mM KCl, 2 mM CaCl2, 2 mM MgCl2 and 0.1% bovine serum albumin. The buffer was adjusted to pH 7.4 with HCl.
(§3) III. Measurement and Evaluation:
(§4) After incubation at 25° C. for 60 minutes, the mixtures were filtered under vacuum through Whatman GF/B glass fiber filters using a cell harvester. The filters were transferred by a filter transfer system into scintillation vials. After addition of 4 ml of Ultima Gold® (Packard), the samples were shaken for one hour and then the radioactivity was counted in a beta counter (Packard, Tricarb 2000 or 2200CA). The cp values were converted into dpm by means of a standard quench series with the aid of the instrument's own program.
(§5) Evaluation of the inhibition plots took place by iterative nonlinear regression analysis using the Statistical Analysis System (SAS) similar to the “LIGAND” program described by Munson and Rodbard.

The target of test [2] is T2, human dopamine D3 receptors (Homo sapiens, UniProt P35462).
T2 construct: expressed in transfected cells; membranes)
T2 sequence (P35462 whole entry): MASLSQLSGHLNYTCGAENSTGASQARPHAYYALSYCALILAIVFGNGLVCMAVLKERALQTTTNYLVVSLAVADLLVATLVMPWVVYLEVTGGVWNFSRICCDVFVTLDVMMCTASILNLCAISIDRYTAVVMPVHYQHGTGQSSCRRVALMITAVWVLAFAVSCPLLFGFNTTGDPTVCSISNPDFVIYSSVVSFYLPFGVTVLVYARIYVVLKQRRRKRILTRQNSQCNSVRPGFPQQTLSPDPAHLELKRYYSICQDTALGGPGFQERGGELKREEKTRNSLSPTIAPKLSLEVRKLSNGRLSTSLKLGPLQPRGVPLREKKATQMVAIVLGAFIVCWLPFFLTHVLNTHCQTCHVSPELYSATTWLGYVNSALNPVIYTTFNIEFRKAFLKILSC
The test is described as follows: Dopamine D3 receptor binding, displacement of [125I]-iodosulpride. To be noted: membranes from HEK-293 cells with stably expressed human D3 receptors, 0.1 nM [125I]-iodosulpride. As for the experimental part: as §1, §2
The incubation buffer comprised 50 mM Tris, 120 mM NaCl, 5 mM KCl, 2 mM CaCl2, 2 mM MgCl2 and 0.1% bovine serum albumin, 10 μM quinolone, 0.1% ascorbic acid (prepared fresh each day). The buffer was adjusted to pH 7.4 with HCl.
as §3, §4, §5

Counter-ions that a name gives are not always drawn.

T1 sequence (P14416 whole entry, canonical isoform): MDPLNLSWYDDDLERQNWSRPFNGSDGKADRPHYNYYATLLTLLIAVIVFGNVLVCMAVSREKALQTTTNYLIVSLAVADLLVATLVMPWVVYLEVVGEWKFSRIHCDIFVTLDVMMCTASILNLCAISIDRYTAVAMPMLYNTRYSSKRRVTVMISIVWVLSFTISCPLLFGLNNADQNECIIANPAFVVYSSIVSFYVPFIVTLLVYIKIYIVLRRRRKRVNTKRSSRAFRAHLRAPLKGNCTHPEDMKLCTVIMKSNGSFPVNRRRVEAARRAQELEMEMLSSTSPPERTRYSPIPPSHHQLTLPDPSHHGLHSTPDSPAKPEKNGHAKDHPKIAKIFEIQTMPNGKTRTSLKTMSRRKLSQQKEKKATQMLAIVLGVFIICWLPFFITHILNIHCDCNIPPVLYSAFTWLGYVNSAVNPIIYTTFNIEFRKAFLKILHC

For the molecule `CCCc1cc(N2CCN(CCCCN3C(=O)CCC(=O)c4ccccc43)CC2)nc(C(C)(C)C)n1.Cl` [Example 7, 1-{4-[4-(2-tert-Butyl-6-propylpyrimidin-4-yl)piperazin-1-yl]butyl}-3,4-dihydro-1H-1-benzazepine-2,5-dione hydrochloride], in test [1], the “Selectivity vs. D2L (Ki(D2L)/Ki(D3))” value is listed as 118. Besides, the affinity in test [2], expressed as Ki, was 1.33 nM.

With `CC(C)(C)c1cc(N2CCN(CCCCN3C(=O)CCC(=O)c4ccccc43)CC2)nc(C(C)(C)C)n1.Cl` [Example 10, 1-{4-[4-(2,6-Di-tert-butylpyrimidin-4-yl)piperazin-1-yl]butyl}-3,4-dihydro-1H-1-benzazepine-2,5-dione hydrochloride], the “Selectivity vs. D2L (Ki(D2L)/Ki(D3))” value in test [1] was 74. Besides, the Ki (in general, a dissociation constant, usually derived from enzyme kinetics or from competition with a known ligand) in test [2] was found to be 1.24 nM.

As for `O=C1CCC(=O)N(CCCCN2CCN(c3cc(Cl)cc(Cl)c3)CC2)c2ccccc21` [Example 86, 1-{4-[4-(3,5-Dichlorophenyl)-2,5-piperazin-1-yl]butyl}-3,4-dihydro-1H-benzo[b]azepine-2,5-dione fumarate], the “Selectivity vs. D2L (Ki(D2L)/Ki(D3))” value in test [1] is listed as 56. In addition, the Ki in test [2] amounted to 2 nM.

Consider `CC(C)(C)c1nc(C2CC2)cc(N2CCN(CCCCN3C(=O)CCC(=O)c4ccccc43)CC2)n1` [Example 16, 1-{4-[4-(2-tert-Butyl-6-cyclopropylpyrimidin-4-yl)piperazin-1-yl]butyl}-3,4-dihydro-1H-benzo[b]azepine-2,5-dione], for which the “Selectivity vs. D2L (Ki(D2L)/Ki(D3))” value in test [1] is given as 62. The molecule further yielded a Ki in test [2] of 0.96 nM.

Turning to `O=C(O)/C=C/C(=O)O.O=C1CCC(=O)N(CCCCN2CCN(c3cc(C(F)(F)F)cc(C(F)(F)F)c3)CC2)c2ccccc21` [Example 87, 1-{4-[4-(3,5-Bis(trifluoromethyl)phenyl)piperazin-1-yl]butyl}-3,4-dihydro-1H-benzo[b]azepine-2,5-dione fumarate], the “Selectivity vs. D2L (Ki(D2L)/Ki(D3))” value in test [1] was found to be 129. The Ki in test [2] stood at 7.4 nM.

Consider `COc1cc2c(cc1OC)N(CCCCN1CCN(c3cc(C(F)(F)F)nc(C(C)(C)C)n3)CC1)C(=O)CCC2=O` [Example 6, 1-(4-{4-[2-tert-Butyl-6-(trifluoromethyl)pyrimidin-4-yl]piperazin-1-yl}butyl)-7,8-dimethoxy-3,4-dihydro-1H-1-benzazepine-2,5-dione], for which the “Selectivity vs. D2L (Ki(D2L)/Ki(D3))” value in test [1] is reported as 104. In test [2], this molecule had a Ki of 4.5 nM.

For `CC(C)(C)c1nc(N2CCN(C/C=C/CN3C(=O)CCC(=O)c4ccccc43)CC2)cc(C(F)(F)F)n1` [Example 4, 1-((2E)-4-{4-[2-tert-Butyl-6-(trifluoromethyl)pyrimidin-4-yl]piperazin-1-yl}but-2-enyl)-3,4-dihydro-1H-1-benzazepine-2,5-dione], the “Selectivity vs. D2L (Ki(D2L)/Ki(D3))” value in test [1] was found to be 155. Further, the affinity in test [2], expressed as Ki, was 1.74 nM.

(Values after patent US7723384B2, “Keto lactam compounds and use thereof” (Abbott GmbH & Co. KG., priority 2003, dated 2010).)
